Where only a bound is given, the exact number is not on record here.

For this assay, the target named is HER2YVMA (Homo sapiens, UniProt P04626, INS775YVMA). As to the kind of experiment: HER2 signaling (pHER2) in Hek293-HER2YVMA cells. In kind it is cell-based. Further details: expressed in transfected cells; host or cells: HEK293 (pool), Ba/F3 (clones), BEAS2B (clones); lentiviral vector pCDH-CMV-MCS-EF1-Neo. Particulars: 1.5 hr compound, 1% FBS, read-out: HEKYVMA pHER2 EC50. The procedure, abridged: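 Lentivirally transduced HER2YVMA lines (HEK293 pool; BEAS2B clone) treated 1.5 h at 37 °C in 1% FBS medium with compound at 0.0005–1.1 μM. Lysates read by MSD immunoassay for pHER2 (Tyr1248) normalized to total HER2, as % DMSO control; EC50 from variable-slope sigmoidal fit.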
Chain of HER2YVMA (P04626 with tags, fused parts or gaps INS775YVMA): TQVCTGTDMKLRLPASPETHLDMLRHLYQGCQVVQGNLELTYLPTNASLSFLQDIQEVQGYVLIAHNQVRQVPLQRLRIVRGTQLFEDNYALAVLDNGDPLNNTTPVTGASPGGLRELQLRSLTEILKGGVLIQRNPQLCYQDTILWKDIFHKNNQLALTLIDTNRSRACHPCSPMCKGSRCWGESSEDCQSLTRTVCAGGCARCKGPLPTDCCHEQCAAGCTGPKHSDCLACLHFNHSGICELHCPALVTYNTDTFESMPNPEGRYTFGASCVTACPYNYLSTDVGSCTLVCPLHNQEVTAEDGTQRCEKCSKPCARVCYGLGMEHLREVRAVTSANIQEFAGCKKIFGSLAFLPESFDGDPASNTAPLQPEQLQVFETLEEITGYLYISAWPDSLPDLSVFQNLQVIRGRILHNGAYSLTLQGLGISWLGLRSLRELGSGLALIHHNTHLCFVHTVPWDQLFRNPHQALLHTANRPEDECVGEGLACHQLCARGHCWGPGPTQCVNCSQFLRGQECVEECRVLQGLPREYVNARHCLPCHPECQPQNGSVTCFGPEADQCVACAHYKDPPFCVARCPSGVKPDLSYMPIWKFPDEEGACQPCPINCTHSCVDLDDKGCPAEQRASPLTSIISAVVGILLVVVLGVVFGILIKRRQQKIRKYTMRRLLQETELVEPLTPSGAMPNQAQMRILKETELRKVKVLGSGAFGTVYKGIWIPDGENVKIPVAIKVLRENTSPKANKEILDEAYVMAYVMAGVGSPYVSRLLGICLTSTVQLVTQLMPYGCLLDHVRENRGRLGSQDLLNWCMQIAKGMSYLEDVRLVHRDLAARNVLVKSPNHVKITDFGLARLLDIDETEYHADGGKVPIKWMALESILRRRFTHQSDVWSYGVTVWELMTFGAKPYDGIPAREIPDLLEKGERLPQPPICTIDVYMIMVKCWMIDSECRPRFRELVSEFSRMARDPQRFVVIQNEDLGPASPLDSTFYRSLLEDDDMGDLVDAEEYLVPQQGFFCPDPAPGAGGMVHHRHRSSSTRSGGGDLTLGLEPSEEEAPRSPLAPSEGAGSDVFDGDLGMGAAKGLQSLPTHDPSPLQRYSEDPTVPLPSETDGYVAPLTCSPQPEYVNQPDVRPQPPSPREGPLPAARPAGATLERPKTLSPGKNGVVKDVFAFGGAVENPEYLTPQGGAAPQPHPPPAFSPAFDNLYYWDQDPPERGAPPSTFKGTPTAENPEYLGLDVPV

`Cc1ccc(Oc2ccc(Nc3ncnc4sc5c(c34)CCN(C(=O)/C=C/CN3CC=CCC3)C5)cc2C)cn1` [Compound 55]: the EC50 is under 100 nM. For `Cc1ccc(Oc2ccc(Nc3ncnc4sc5c(c34)CN(C(=O)/C=C/CN(C)C)C5)cc2C)cn1` [Compound 99, (E)-4-(dimethylamino)-1-(4-((3-methyl-4-((6-methylpyridin-3-yl)oxy)phenyl)amino)-5,7-dihydro-6H-pyrrolo[3′,4′:4,5]thieno[2,3-d]pyrimidin-6-yl)but-2-en-1-one], the EC50 was under 100 nM. As to `O=C(/C=C/CN1CC2C(CO)C2C1)N1CCc2c(sc3ncnc(Nc4ccc(Oc5ccc6ncnn6c5)c(Cl)c4)c23)C1` (stereo not drawn) [Compound 92], the EC50 was under 100 nM. With `CCN1CCN(C/C=C/C(=O)N2CCc3c(sc4ncnc(Nc5ccc(Oc6ccc(C)nc6)c(C)c5)c34)C2)CC1` [Compound 46] the figure was under 100 nM; with `Cc1ccc(Oc2ccc(Nc3ncnc4sc5c(c34)CCN(C(=O)/C=C/CNC3CCOC3)C5)cc2C)cn1` (stereo not drawn) [Compound 47], under 100 nM. The figure for `Cc1cc(Nc2ncnc3sc4c(c23)CCN(C(=O)/C=C/CN2CC3C(CO)C3C2)C4)ccc1Oc1ccc2ncnn2c1` (stereo not drawn) [Compound 81] is under 100 nM; for `Cc1ccc(Oc2ccc(Nc3ncnc4sc5c(c34)CCN(C(=O)/C=C/CN3C[C@H]4CC[C@@H](C3)O4)C5)cc2C)cn1` [Compound 66] it is under 100 nM; for `CN(C/C=C/C(=O)N1CCc2c(sc3ncnc(Nc4ccc(Oc5ccc6ncnn6c5)c(Cl)c4)c23)C1)C(C)(C)C` [Compound 91] it is under 100 nM. With `Cc1ccc(Oc2ccc(Nc3ncnc4sc5c(c34)CCN(C(=O)/C=C/CN3CC(O)CO3)C5)cc2C)cn1` (stereo not drawn) [Compound 43], the EC50 was 350 to 1000 nM.

On to `Cc1cc(Nc2ncnc3sc4c(c23)CCN(C(=O)/C=C/CN(C)C)C4)ccc1Oc1ccc2ncnn2c1` [Compound 3, (E)-1-(4-((4-([1,2,4]triazolo[1,5-a]pyridin-6-yloxy)-3-methylphenyl)amino)-5,8-dihydropyrido[4′,3′:4,5]thieno[2,3-d]pyrimidin-7(6H)-yl)-4-(dimethylamino)but-2-en-1-one], for which the EC50 is 100 to 350 nM. On to `Cc1cc(Nc2ncnc3sc4c(c23)CCN(C(=O)/C=C/CN2CC(C)OC(C)C2C)C4)ccc1Oc1ccc2ncnn2c1` (stereo not drawn) [Compound 83], for which the EC50 was under 100 nM. The figure for `Cc1ccc(Oc2ccc(Nc3ncnc4sc5c(c34)C(C)CN(C(=O)C=CCN(C)C)C5)cc2C)cn1` (single isomer, unassigned) [Compound 106] is under 100 nM. With `Cc1ccc(Oc2ccc(Nc3ncnc4sc5c(c34)CCN(C(=O)/C=C/CNC3CCC3)C5)cc2C)cn1` [Compound 54], the EC50 was under 100 nM.

As to `Cc1ccc(Oc2ccc(Nc3ncnc4sc5c(c34)CCN(C(=O)/C=C/CN3CCC(O)C3)C5)cc2C)cn1` (stereo not drawn) [Compound 74], the EC50 was under 100 nM. Turning to `Cc1ccc(Oc2ccc(Nc3ncnc4sc5c(c34)CCN(C(=O)/C=C/CN(C)C(C)(C)C)C5)cc2C)cn1` [Compound 33], the EC50 was under 100 nM. The figure for `Cc1ccc(Oc2ccc(Nc3ncnc4sc5c(c34)CCN(C(=O)/C=C/CNCc3ccsc3)C5)cc2C)cn1` [Compound 52] is under 100 nM. Take `Cc1cc(Nc2ncnc3sc4c(c23)CCN(C(=O)/C=C/CN(C)C)C4)ccc1Oc1ccc2[nH]ncc2c1` [Compound 22, (E)-1-(4-((4-((1H-indazol-5-yl)oxy)-3-methylphenyl)amino)-5,8-dihydropyrido[4′,3′:4,5]thieno[2,3-d]pyrimidin-7(6H)-yl)-4-(dimethylamino)but-2-en-1-one]: the EC50 is under 100 nM. For the molecule `Cc1ccc(Oc2ccc(Nc3ncnc4sc5c(c34)CCN(C(=O)/C=C/CN[C@H]3CCC[C@H](O)C3)C5)cc2C)cn1` [Compound 73], the concentration for a half-maximal effect (EC50) was under 100 nM.

With `Cc1ccc(Oc2ccc(Nc3ncnc4sc5c(c34)CCN(C(=O)/C=C/CN3CCn4cc(C(F)(F)F)nc4C3)C5)cc2C)cn1` [Compound 61], the EC50 fell in the range of 350 to 1000 nM.

For `Cc1ccc(Oc2ccc(Nc3ncnc4[nH]c5c(c34)CN(C(=O)/C=C/CN(C)C)CC5)cc2C)cn1` [Compound 97, (E)-4-(dimethylamino)-1-(4-((3-methyl-4-((6-methylpyridin-3-yl)oxy)phenyl)amino)-5,7,8,9-tetrahydro-6H-pyrido[3′,4′:4,5]pyrrolo[2,3-d]pyrimidin-6-yl)but-2-en-1-one], the EC50 is 100 to 350 nM. Turning to `Cc1ccc(Oc2ccc(Nc3ncnc4sc5c(c34)CCN(C(=O)/C=C/CN(C)C)CC5)cc2C)cn1` [Compound 100, (E)-4-(dimethylamino)-1-(4-((3-methyl-4-((6-methylpyridin-3-yl)oxy)phenyl)amino)-8,9-dihydro-5H-pyrimido[5′,4′:4,5]thieno[2,3-d]azepin-7(6H)-yl)but-2-en-1-one], the EC50 is under 100 nM. With `CNC(=O)CNC/C=C/C(=O)N1CCc2c(sc3ncnc(Nc4ccc(Oc5ccc(C)nc5)c(C)c4)c23)C1` [Compound 39], the EC50 was in the range of 100 to 350 nM. For the molecule `C=CC(=O)N1CCc2[nH]c3ncnc(Nc4ccc(Oc5ccc6ncnn6c5)c(C)c4)c3c2C1` [Compound 102, 1-(4-((4-([1,2,4]triazolo[1,5-a]pyridin-6-yloxy)-3-methylphenyl)amino)-5,7,8,9-tetrahydro-6H-pyrido[3′,4′:4,5]pyrrolo[2,3-d]pyrimidin-6-yl)prop-2-en-1-one], the EC50 lay within 100 to 350 nM. Turning to `CC(=O)N1CCN(C/C=C/C(=O)N2CCc3c(sc4ncnc(Nc5ccc(Oc6ccc(C)nc6)c(C)c5)c34)C2)CC1` [Compound 51], the EC50 is 100 to 350 nM. Regarding `Cc1ccc(Oc2ccc(Nc3ncnc4sc5c(c34)CCN(C(=O)/C=C/CN3CCC4(CCOC4)C3)C5)cc2C)cn1` (stereo not drawn) [Compound 67], the EC50 was under 100 nM. Regarding `Cc1ccc(Oc2ccc(Nc3ncnc4sc5c(c34)CCN(C(=O)/C=C/CN3CC4CC3CO4)C5)cc2C)cn1` (stereo not drawn) [Compound 26], the EC50 was under 100 nM. `C=CC(=O)N1CCc2c(sc3ncnc(Nc4ccc(Oc5ccc6ncnn6c5)c(Cl)c4)c23)C1` [Compound 4, 1-(4-((4-([1,2,4]triazolo[1,5-a]pyridin-6-yloxy)-3-chlorophenyl)amino)-5,8-dihydropyrido[4′,3′:4,5]thieno[2,3-d]pyrimidin-7(6H)-yl)prop-2-en-1-one]: the EC50 was under 100 nM. Regarding `Cc1ccc(Oc2ccc(Nc3ncnc4sc5c(c34)CCN(C(=O)/C=C/CN3CCCC3C(N)=O)C5)cc2C)cn1` (stereo not drawn) [Compound 41], the EC50 was under 100 nM. With `Cc1ncc(Oc2ccc(Nc3ncnc4sc5c(c34)CCN(C(=O)/C=C/CN(C)C)C5)cc2C)cn1` [Compound 21, (E)-4-(dimethylamino)-1-(4-((3-methyl-4-((2-methylpyrimidin-5-yl)oxy)phenyl)amino)-5,8-dihydropyrido[4′,3′:4,5]thieno[2,3-d]pyrimidin-7(6H)-yl)but-2-en-1-one] the figure was under 100 nM; with `Cc1ccc(Oc2ccc(Nc3ncnc4sc5c(c34)CCN(C(=O)/C=C/CNCc3cc(C)n[nH]3)C5)cc2C)cn1` [Compound 49], under 100 nM; with `Cc1ccc(Oc2ccc(Nc3ncnc4sc5c(c34)CCN(C(=O)/C=C/CN[C@@H](C)CO)C5)cc2C)cn1` [Compound 75], under 100 nM. With `Cc1ccc(Oc2ccc(Nc3ncnc4sc5c(c34)CCN(C(=O)/C=C/CNCC3CN(C)CCO3)C5)cc2C)cn1` (stereo not drawn) [Compound 48] the figure was under 100 nM; with `CCOC/C=C/C(=O)N1CCc2c(sc3ncnc(Nc4ccc(Oc5ccc(C)nc5)c(C)c4)c23)C1` [Compound 96, (E)-4-ethoxy-1-(4-((3-methyl-4-((6-methylpyridin-3-yl)oxy)phenyl)amino)-5,8-dihydropyrido[4′,3′:4,5]thieno[2,3-d]pyrimidin-7(6H)-yl)but-2-en-1-one], under 100 nM; with `C=CC(=O)N1CCc2[nH]c3ncnc(Nc4ccc(Oc5ccc(C)nc5)c(C)c4)c3c2C1` [Compound 94, 1-(4-((3-methyl-4-((6-methylpyridin-3-yl)oxy)phenyl)amino)-7,8-dihydro-5H-pyrido[3′,4′:4,5]pyrrolo[2,3-d]pyrimidin-6(9H)-yl)prop-2-en-1-one], under 100 nM. Take `Cc1ccc(Oc2ccc(Nc3ncnc4sc5c(c34)CCN(C(=O)/C=C/CN3C4CCC3CC4)C5)cc2C)cn1` [Compound 44]: the EC50 was under 100 nM. Consider `Cc1cc(Nc2ncnc3sc4c(c23)CCN(C(=O)/C=C/CN2CC(C)(C)OC(C)(C)C2)C4)ccc1Oc1ccc2ncnn2c1` [Compound 84], for which the EC50 is 100 to 350 nM. Regarding `Cc1ccc(Oc2ccc(Nc3ncnc4sc5c(c34)CCN(C(=O)/C=C/CN3CCC(n4ccnc4)CC3)C5)cc2C)cn1` [Compound 62], the EC50 lay within 100 to 350 nM. `Cc1ccc(Oc2ccc(Nc3ncnc4sc5c(c34)CCN(C(=O)/C=C/CN3CC(O)C3)C5)cc2C)cn1` [Compound 53]: the EC50 is 100 to 350 nM.

In the case of `Cc1ccc(Oc2ccc(Nc3ncnc4sc5c(c34)CCN(C(=O)/C=C/CNCCO)C5)cc2C)cn1` [Compound 65], the EC50 is under 100 nM. With `Cc1ccc(Oc2ccc(Nc3ncnc4sc5c(c34)CCN(C(=O)/C=C/CNC3CCC(C(=O)N(C)C)CC3)C5)cc2C)cn1` (stereo not drawn) [Compound 71] the figure was under 100 nM; with `Cc1cc(Nc2ncnc3sc4c(c23)CCN(C(=O)/C=C/CN(C)C)C4)ccc1Oc1cccc(B(O)O)c1` [Compound 64, (E)-(3-(4-((7-(4-(dimethylamino)but-2-enoyl)-5,6,7,8-tetrahydropyrido[4′,3′:4,5]thieno[2,3-d]pyrimidin-4-yl)amino)-2-methylphenoxy)phenyl)boronic acid], under 100 nM; with `O=C(/C=C/CN1CC2CC1CO2)N1CCc2c(sc3ncnc(Nc4ccc(Oc5ccc6ncnn6c5)c(Cl)c4)c23)C1` (stereo not drawn) [Compound 87], under 100 nM.

In general, EC50 refers to the concentration that produces a half-maximal response.

The values above are taken from patent publication US20240391931A1 (Bristol-Myers Squibb Company, priority 2021, published 2024).
